Laboratory results reported in publication PMC9784969, “SARS-CoV-2 Inhibitors Identified by Phenotypic Analysis of a Collection of Viral RNA-Binding Molecules” (Pharmaceuticals, 2022).
Where two headings read alike, the source gives them in different places.

Experiments:
3_SL1+2 RNA = format: binding
in vitro [1] = conditions: African green monkey, uninfected Vero E6 cells
3_S2m RNA = assay: ligand-based 1H NMR (1D, CPMG, wLOGSY); format: binding, SARS-CoV-2
SCoV2 USA-WA1/2020 = format: cell-based; conditions: 293T-ACE2, MOI 2, 8-h single cycle; added at +2 h relative to infection
5_SL2+3 RNA = assay: ligand-based 1H NMR (1D, CPMG, wLOGSY); format: binding, SARS-CoV-2
SCoV2 RNA elements = assay: ligand-based 1H NMR (1D, CPMG, wLOGSY), six RNA elements compared; format: binding, SARS-CoV-2; conditions: CSP, LB, CPMG and wLOGSY perturbations; 300 µM compound
Source text: We first used ligand-based ^1H NMR experiments to analyze the interaction of the selected compounds with each of the six RNA elements specified above, including one-dimensional, Carr–Purcell–Meiboom–Gill (CPMG) and waterLOGSY (wLOGSY) experiments. These assays detect changes in the ^1H signals of the ligand upon RNA association (Figure 4A), and have been successfully used to evaluate small-molecule binding to RNA motifs, including elements of the SCoV2 genome.
Each ligand (at a concentration of 300 μM) was mixed with a smaller quantity of RNA in an aqueous solution containing 25 mM potassium phosphate (pH 6.2), 150 mM KCl, 3 mM MgCl2, and 10% D2O. RNA–ligand molar ratios of 1:50 and 1:100 were explored (with 6 and 3 μM RNA, respectively). […] The water signal was suppressed from one-dimensional experiments with a watergate sequence. The CPMG experiments were acquired with 100, 200, 300, and 400 ms relaxation delays before acquisition, and water suppression was achieved by presaturation. wLOGSY experiments employed a selective Gaussian 180° pulse at the water frequency and an NOE mixing time of 1.5 s and suppressed the water signal by excitation sculpting. All spectra were acquired in the absence and presence of RNA.
All ligand signals were individually analyzed. For clomiphene citrate, the signals corresponding to cis and trans forms were identified by comparing the spectrum of clomiphene citrate with those of the individual stereoisomers. In CPMG experiments, the binding of the compounds to the different RNA sequences was quantified as 100 minus the percentage of ligand signal area in the +RNA CPMG spectrum relative to the corresponding signal area in the -RNA CPMG spectrum. In wLOGSY experiments, binding was quantified with the LOGSY factor, or % of ligand signal in the difference spectrum between the +RNA and –RNA wLOGSY spectra, relative to the corresponding signal in the one-dimensional -RNA reference spectrum. In one-dimensional experiments, line broadening (LB) was quantified as explained for CPMG spectra.

in vitro [2] = conditions: human, uninfected 293T-ACE2 cells
ORF7b RNA = assay: ligand-based 1H NMR (1D, CPMG, wLOGSY); format: binding, SARS-CoV-2
[3] = average of aliphatic protons, RNA:ligand 1:100 (clomiphene) or 1:50 (trim, qz2)
[4] = average of aromatic protons, RNA:ligand 1:100 (clomiphene) or 1:50 (trim, qz2)

SMILES: NCCCc1cn(C(c2ccccc2)(c2ccccc2)c2ccccc2)cn1 [trim]
- CPMG variation (3_SL1+2 RNA; [3]): 18.3%
- LB (3_SL1+2 RNA; [3]): 14.0%
- LOGSY factor (3_SL1+2 RNA; [3]): 33.1%
- CPMG variation (3_SL1+2 RNA; [4]): 25.0%
- LB (3_SL1+2 RNA; [4]): 10.2%
- LOGSY factor (3_SL1+2 RNA; [4]): 87.9%
- CPMG variation (3_SL1+2 RNA; trim peak A, RNA:ligand 1:50): 18.5%
- LB (3_SL1+2 RNA; trim peak A, RNA:ligand 1:50): 11.8%
- LOGSY factor (3_SL1+2 RNA; trim peak A, RNA:ligand 1:50): 32.1%
- CPMG variation (3_SL1+2 RNA; trim peak B, RNA:ligand 1:50): 23.8%
- LB (3_SL1+2 RNA; trim peak B, RNA:ligand 1:50): 15.1%
- LOGSY factor (3_SL1+2 RNA; trim peak B, RNA:ligand 1:50): 34.2%
- CPMG variation (3_SL1+2 RNA; trim peak C, RNA:ligand 1:50): 23.6%
- LB (3_SL1+2 RNA; trim peak C, RNA:ligand 1:50): 7.46%
- LOGSY factor (3_SL1+2 RNA; trim peak C, RNA:ligand 1:50): 80.8%
- CPMG variation (3_SL1+2 RNA; trim peak D, RNA:ligand 1:50): 25.2%
- LB (3_SL1+2 RNA; trim peak D, RNA:ligand 1:50): 9.70%
- LOGSY factor (3_SL1+2 RNA; trim peak D, RNA:ligand 1:50): 92.6%
- CPMG variation (3_SL1+2 RNA; trim peak E, RNA:ligand 1:50): 26.4%
- LB (3_SL1+2 RNA; trim peak E, RNA:ligand 1:50): 14.1%
- LOGSY factor (3_SL1+2 RNA; trim peak E, RNA:ligand 1:50): 90.5%
- CC50 at 2 days (in vitro [1]): > 90 µM
- CPMG variation (3_S2m RNA; [3]): 15.7%
- LB (3_S2m RNA; [3]): 9.33%
- LOGSY factor (3_S2m RNA; [3]): 39.4%
- CPMG variation (3_S2m RNA; [4]): 24.0%
- LB (3_S2m RNA; [4]): 8.82%
- LOGSY factor (3_S2m RNA; [4]): 54.4%
- CPMG variation (3_S2m RNA; trim peak A, RNA:ligand 1:50): 15.8%
- LB (3_S2m RNA; trim peak A, RNA:ligand 1:50): 5.70%
- LOGSY factor (3_S2m RNA; trim peak A, RNA:ligand 1:50): 45.5%
- CPMG variation (3_S2m RNA; trim peak B, RNA:ligand 1:50): 22.1%
- LB (3_S2m RNA; trim peak B, RNA:ligand 1:50): 11.1%
- LOGSY factor (3_S2m RNA; trim peak B, RNA:ligand 1:50): 33.3%
- CPMG variation (3_S2m RNA; trim peak C, RNA:ligand 1:50): 22.2%
- LB (3_S2m RNA; trim peak C, RNA:ligand 1:50): 11.7%
- LOGSY factor (3_S2m RNA; trim peak C, RNA:ligand 1:50): 54.5%
- CPMG variation (3_S2m RNA; trim peak D, RNA:ligand 1:50): 24.2%
- LB (3_S2m RNA; trim peak D, RNA:ligand 1:50): 4.64%
- LOGSY factor (3_S2m RNA; trim peak D, RNA:ligand 1:50): 70.5%
- CPMG variation (3_S2m RNA; trim peak E, RNA:ligand 1:50): 26.4%
- LB (3_S2m RNA; trim peak E, RNA:ligand 1:50): 14.3%
- LOGSY factor (3_S2m RNA; trim peak E, RNA:ligand 1:50): 38.2%
- nucleocapsid protein expression (SCoV2 USA-WA1/2020): strongly inhibited
- CPMG variation (5_SL2+3 RNA; [3]): 31.0%
- LB (5_SL2+3 RNA; [3]): 19.1%
- LOGSY factor (5_SL2+3 RNA; [3]): 49.4%
- CPMG variation (5_SL2+3 RNA; [4]): 39.0%
- LB (5_SL2+3 RNA; [4]): 15.9%
- LOGSY factor (5_SL2+3 RNA; [4]): 131.1%
- CPMG variation (5_SL2+3 RNA; trim peak A, RNA:ligand 1:50): 32.9%
- LB (5_SL2+3 RNA; trim peak A, RNA:ligand 1:50): 15.7%
- LOGSY factor (5_SL2+3 RNA; trim peak A, RNA:ligand 1:50): 55.3%
- CPMG variation (5_SL2+3 RNA; trim peak B, RNA:ligand 1:50): 36.9%
- LB (5_SL2+3 RNA; trim peak B, RNA:ligand 1:50): 20.8%
- LOGSY factor (5_SL2+3 RNA; trim peak B, RNA:ligand 1:50): 43.4%
- CPMG variation (5_SL2+3 RNA; trim peak C, RNA:ligand 1:50): 40.3%
- LB (5_SL2+3 RNA; trim peak C, RNA:ligand 1:50): 14.9%
- LOGSY factor (5_SL2+3 RNA; trim peak C, RNA:ligand 1:50): 131%
- CPMG variation (5_SL2+3 RNA; trim peak D, RNA:ligand 1:50): 38.6%
- LB (5_SL2+3 RNA; trim peak D, RNA:ligand 1:50): 16.0%
- LOGSY factor (5_SL2+3 RNA; trim peak D, RNA:ligand 1:50): 126%
- CPMG variation (5_SL2+3 RNA; trim peak E, RNA:ligand 1:50): 38.9%
- LB (5_SL2+3 RNA; trim peak E, RNA:ligand 1:50): 16.7%
- LOGSY factor (5_SL2+3 RNA; trim peak E, RNA:ligand 1:50): 135%
- RNA binding preference (SCoV2 RNA elements): bound with enhanced affinity to the 5_SL2+3 and 3_S2m molecules
- CC50 at 2 days (in vitro [2]): 23.5 µM
- CPMG variation (ORF7b RNA; [3]): 38.7%
- LB (ORF7b RNA; [3]): 13.5%
- LOGSY factor (ORF7b RNA; [3]): 103%
- CPMG variation (ORF7b RNA; [4]): 30.2%
- LB (ORF7b RNA; [4]): 4.23%
- LOGSY factor (ORF7b RNA; [4]): 208%
- CPMG variation (ORF7b RNA; trim peak A, RNA:ligand 1:50): 34.9%
- LB (ORF7b RNA; trim peak A, RNA:ligand 1:50): 15.8%
- LOGSY factor (ORF7b RNA; trim peak A, RNA:ligand 1:50): 75.4%
- CPMG variation (ORF7b RNA; trim peak B, RNA:ligand 1:50): 44.0%
- LB (ORF7b RNA; trim peak B, RNA:ligand 1:50): 12.4%
- LOGSY factor (ORF7b RNA; trim peak B, RNA:ligand 1:50): 132%
- CPMG variation (ORF7b RNA; trim peak C, RNA:ligand 1:50): 18.3%
- LB (ORF7b RNA; trim peak C, RNA:ligand 1:50): -3.43%
- LOGSY factor (ORF7b RNA; trim peak C, RNA:ligand 1:50): 210%
- CPMG variation (ORF7b RNA; trim peak D, RNA:ligand 1:50): 41.8%
- LB (ORF7b RNA; trim peak D, RNA:ligand 1:50): 7.94%
- LOGSY factor (ORF7b RNA; trim peak D, RNA:ligand 1:50): 218%
- CPMG variation (ORF7b RNA; trim peak E, RNA:ligand 1:50): 20.4%
- LB (ORF7b RNA; trim peak E, RNA:ligand 1:50): 4.46%
- LOGSY factor (ORF7b RNA; trim peak E, RNA:ligand 1:50): 196%
